{"source": "patent US20240269128A1", "about": "“COMPOUNDS FOR TREATING OR PREVENTING ALZHEIMER'S DISEASE” (THE UNITED STATES OF AMERICA, as represented by the …, priority 2021, published 2024)", "key": {"iPSCs": {"test_system": "iPSCs", "assay": "LPS induced neuroinflammation (iPSCs)", "assay_type": "cell-based", "conditions": "posterior probability of a protective effect", "description": "Cell-based assays: For each combination of drugs and assay, the posterior probability P(Hi|data) of protective, neutral, and adverse drug effect (formal hypotheses H1, H0, H2, respectively) were evaluated. Dose-response relationships (x-y data) were modeled with a Bayesian nonlinear regression model:\nand Bayesian estimation of the posterior density of the fold change was performed using default settings of the Markov chain Monte Carlo samples implemented by the PyMC python library. For efficient sample, each bioactivity data set was standardized such that […] corresponded to one standard deviation. Diagnostic criteria (posterior sample of fitted curves, effective sample sizes, values of the r statistic, and Markov chain standard errors) were inspected for the fit and three poorly fitted data sets out of a total of 91 data sets were excluded."}, "STAT3": {"target": "STAT3 (Mus musculus, UniProt P42227)", "sequence (P42227 whole entry)": "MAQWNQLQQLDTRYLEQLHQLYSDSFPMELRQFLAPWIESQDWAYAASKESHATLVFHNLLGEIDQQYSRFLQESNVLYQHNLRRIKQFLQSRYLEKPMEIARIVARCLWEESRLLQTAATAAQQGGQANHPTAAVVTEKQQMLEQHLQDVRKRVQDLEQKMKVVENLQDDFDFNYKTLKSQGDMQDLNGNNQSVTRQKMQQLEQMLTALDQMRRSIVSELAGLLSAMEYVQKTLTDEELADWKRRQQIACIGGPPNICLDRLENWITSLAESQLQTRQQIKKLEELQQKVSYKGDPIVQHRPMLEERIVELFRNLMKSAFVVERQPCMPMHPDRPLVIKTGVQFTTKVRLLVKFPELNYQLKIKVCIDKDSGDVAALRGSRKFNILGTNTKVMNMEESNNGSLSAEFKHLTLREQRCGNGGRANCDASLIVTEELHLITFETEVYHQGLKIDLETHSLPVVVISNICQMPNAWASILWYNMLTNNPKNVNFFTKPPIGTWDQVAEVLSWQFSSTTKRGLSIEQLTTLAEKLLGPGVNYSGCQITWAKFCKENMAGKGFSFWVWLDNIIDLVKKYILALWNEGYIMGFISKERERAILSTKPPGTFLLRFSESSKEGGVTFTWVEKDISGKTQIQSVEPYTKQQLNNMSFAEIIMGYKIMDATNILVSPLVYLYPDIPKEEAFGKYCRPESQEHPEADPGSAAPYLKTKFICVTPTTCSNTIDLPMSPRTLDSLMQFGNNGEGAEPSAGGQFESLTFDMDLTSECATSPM", "assay": "Western blot of p-STAT3 in BV-2 phenotypic assays (Aβ1-42 clearance, LPS)", "assay_type": "cell-based", "conditions": "25 μM", "description": "Western blot analyses: Samples for western blot analyses were prepared from 3 assays which provided evidence of HCQ-associated rescue (i.e., Ab1-42 clearance, tau phosphorylation, and LPS-induced neuroinflammation). Samples were prepared identically as described above in section: Effect of HCQ on AD-related phenotypes in cell culture, and scaled up to 24-well format to allow for adequate sample volume. After HCQ treatment, cells were washed once with PBS and harvested in 50 μl 50 mM HEPES+2% SDS lysis buffer. The extracts were then boiled at 95° C. for 5 mins. Analytic methods were identical to those described above in Example 4.\nStatistical analyses: Statistical analysis was performed using STATA 16.1. Group differences were evaluated using two-sample t-tests (parametric) to calculate differences in p-STAT3 levels between HCQ treated and control samples. We additionally used the Wilcoxon rank-sum test (non-parametric) to confirm that results were robust to distributional assumptions. Significant differences were indicated as p<0.05."}, "[1]": {"test_system": "Primary hippocampal neurons", "assay": "Aβ toxicity assay", "assay_type": "cell-based, mouse", "conditions": "HCQ 25, 2.5 or 0.25 μM", "description": "Aβ toxicity: Primary hippocampal neurons were prepared from E18.5 timed pregnant C57BL/6JRccHsd mice as previously described. Cells were seeded in poly-D-lysine pre-coated 96-well plates at a density of 4×10^4 cells/well and cultivated until DIV10 (Neurobasal, 2% B-27, 0.5 mM glutamine, 25 μM glutamate, 1% Penicillin-Streptomycin). On DIV10 pre-aggregated Aβ1-42 (Bachem 4061966, final concentration 10 μM, 48 h at 4° C.) was added to the cells in the presence or absence of Hydroxychloroquine sulfate (TargetMol, T0951) at 25 μM, 2.5 μM or 0.25 μM concentrations. On DIV16 cells were subject to MTT assay to determine cell viability."}, "[2]": {"test_system": "Alzheimer's disease and related dementia (ADRD) in rheumatoid arthritis patients", "assay": "Medicare claims cohort study of incident ADRD, HCQ vs methotrexate", "assay_type": "in vivo, human", "from_the_text": "The full study protocol for patient-level analysis in Medicare claims was pre-registered on clinicaltrials.gov prior to data analysis (NCT04691505) and contains detailed information on implementation including all codes that were used to identify study variables to allow future replication. The following sections summarize key methodologic details. Data source: Medicare Fee-For-Service claims data from 2007 through 2017 were used. Medicare Part A (hospitalizations), B (medical services), and D (prescription medications) claims are available for research purposes through the Centers for Medicare and Medicaid Services. A signed data use agreement with the CMS was available and the Brigham and Women's Hospital's Institutional Review Board approved this study. Study cohort: A new user, active comparator, observational cohort study design comparing methotrexate to hydroxychloroquine was employed. The patients were required to have continuous enrollment in Medicare parts A, B, and D during the baseline period of 365 days before initiation date of methotrexate or hydroxychloroquine, which was defined as the cohort entry date. Patients were required to have ≥1 diagnosis codes of rheumatoid arthritis during the baseline period but no prior use of any disease modifying antirheumatic treatments. Patients with existing diagnosis of Alzheimer's disease and related dementia (ADRD) any time prior to and including cohort entry date were excluded to focus on incident events. Patients with nursing home admission in 365 days prior to and including cohort entry date also were excluded as medication records for short nursing home stays are unavailable in Medicare claims. Outcome measurement: The endpoint of ADRD was identified based on diagnosis codes, recorded on 1 inpatient claim or 2 outpatient claims, of Alzheimer's disease, vascular dementia, senile, presenile, or unspecified dementia, or dementia in other diseases classified elsewhere. […] Alternative analytic approaches: To accommodate various uncertainties involved in pharmacoepidemiologic investigations focused on ADRD risk, the following alternative analyses were employed. Analysis 1—‘As-treated’ follow-up approach: In this approach, the follow-up started on the day following the cohort entry date and continued until treatment discontinuation or switch (to comparator treatment), insurance disenrollment, death, or administrative endpoint (December 2017). A 90-day ‘grace period’ after the end of the expected days-supply of the most recently filled prescription was considered to define the treatment discontinuation date to accommodate for suboptimal adherence during treatment periods. […] This follow-up approach addresses concerns related to informative censoring if patients discontinue or if physicians de-prescribe the treatments under consideration because of memory problems associated with ADRD, but the diagnosis is not recorded in the electronic healthcare records until after the end of follow-up due to treatment-related censoring. Analysis 3—incorporating a 6-month ‘symptoms to diagnosis’ period: In this approach, an outcome date was assigned that was 6 months before the first recorded ADRD date and excluded last 6 months of follow-up for those who are censored without an event to account for the possibility that ADRD symptoms likely appear some time before a formal diagnosis is recorded in insurance records, which leads to misclassification of ADRD onset. […]"}, "[3]": {"conditions": "macaques; cited from earlier work"}}, "data": [{"compound": "C[C@H](CCC(=O)NCCS(=O)(=O)O)[C@H]1CC[C@H]2[C@@H]3[C@@H](O)C[C@@H]4C[C@H](O)CC[C@]4(C)[C@H]3CC[C@]12C", "note": "[TUDCA, tauroursodeoxycholic acid]", "values": [{"measurement": "effect in LPS induced neuroinflammation (iPSCs)", "setting": "iPSCs", "result": "strongly protective"}]}, {"compound": "CCN(CCO)CCCC(C)Nc1ccnc2cc(Cl)ccc12", "note": "(stereo not shown) [HCQ, hydroxychloroquine]", "values": [{"measurement": "p-STAT3 (Tyr705)", "setting": "STAT3; Aβ1-42 clearance assay, relative to VC", "result": "lowered"}, {"measurement": "p-STAT3 (Tyr705)", "setting": "STAT3; LPS-induced neuroinflammation assay, vs VC", "result": "significantly lower"}, {"measurement": "toxicity due to exogenous Aβ", "setting": "[1]", "result": "no effects"}, {"measurement": "lower risk of ADRD", "setting": "[2]; Analysis 1, as-treated, vs MTX initiators", "result": 8, "unit": "%"}, {"measurement": "lower risk of ADRD", "setting": "[2]; Analysis 2, as-started, 6-month induction period", "result": 13, "unit": "%"}, {"measurement": "lower risk of ADRD", "setting": "[2]; Analysis 3, 6-month symptom to claims period", "result": 16, "unit": "%"}, {"measurement": "cumulative incidence of ADRD", "setting": "[2]; after approximately 2 years of treatment, compared to MTX, all four analyses", "result": "lower cumulative incidence"}, {"measurement": "lowering of incident AD", "setting": "[2]; relative to methotrexate, across analyses", "result": "8-16%"}, {"measurement": "Kp brain/plasma", "setting": "[3]", "result": "21.99±0.11"}]}]}
